Where “and” joins values, the source holds several entries; their conditions need not be identical. Equal entries are not always repeated. Entries after “also recorded” stand apart in the source; their conditions may differ.
What was measured:
Assay type in all cases: in vivo, rat
[1] = Assay B: aldosterone infusion model, systolic blood pressure by radio-telemetry; details: uni-nephrectomized Sprague Dawley rats, 1% NaCl, aldosterone 0.75 mg/hr sc, 4 weeks, eplerenone 100 mpk p.o
Description: Assay B: In Vivo Aldosterone Infusion Model
Male Sprague Dawley rats (n=39; BW=250 g)
Uni-nephrectomy performed during implantation of mini-pumps
2. Aldosterone (0.75 mg/hr, sc via alzet minipump)
1. Aldosterone (0. 75 mg/hr, sc via alzet minipump)+0.6% KCl in the drinking fluid
Groups 1, 2 and 3 received only 0.3% KCl in the drinking solution
SBP measured by radio-telemetry probes inserted in the abdominal aorta

[2] = test system: cyclooxygenase-2 (COX-2); experiment: Assay A: cyclooxygenase-2 immunostaining of hearts; details: angiotensin II-infused, saline-drinking Wistar rats, eplerenone 100 mpk, aldosterone replacement in adrenalectomized rats
[3] = Assay C: histopathologic analysis, semi-quantitative myocardial injury score 0 to 4; details: 7, 14 and 30 days; aldosterone+salt alone or with eplerenone 100 mg/kg/day
Description: The procedure of Assay B was expanded upon in a further study. […] Myocardial tissue from animals in each treatment group was examined after 7, 14, or 30 days of treatment. […] Lesions were preceded by the expression and progressive upregulation of proinflammatory molecules. […] Prior to surgery the animals were individually weighed and placed in one of the following groups: […] Potassium chloride supplementation was added to the saline solution in order to prevent the potential hypokalemia associated with aldosterone excess. Treatment At the time of the surgery, an Alzet 2002 osmotic minipump (Alza Corp., Palo Alto, Calif.) containing either vehicle (9% ethanol/87% propylene glycol/4% dH2O) or 1.0 mg/mL d-aldosterone (Sigma Chemical, St. Louis, Mo.) was inserted subcutaneously at the nape of the neck. Aldosterone was administered at a dose of 0.75 µg/hour. […] Animals were sacrificed from each group (n=8-13) after 7, 14, or 30 days of treatment. The equatorial regions of the heart were routinely processed into paraffin with an automated tissue processor (Hypercenter XP, Shandon/Lipshaw Inc., Pittsburgh, Pa.) and embedded into fresh paraffin apical side down (Shandon Embedding Center, Shandon/Lipshaw Inc.). […] Semi-quantification of myocardial injury was performed as described previously with minor modifications (7). […]

[4] = Assay C: myocardial hydroxyproline colorimetric assay; details: 7 days of treatment; myocardium; aldosterone + salt alone or with eplerenone 100 mg/kg/day; individual rats and group Mean
Description: The procedure of Assay B was expanded upon in a further study. […] Myocardial tissue from animals in each treatment group was examined after 7, 14, or 30 days of treatment. […] Lesions were preceded by the expression and progressive upregulation of proinflammatory molecules. […] Prior to surgery the animals were individually weighed and placed in one of the following groups: […] Potassium chloride supplementation was added to the saline solution in order to prevent the potential hypokalemia associated with aldosterone excess. Treatment At the time of the surgery, an Alzet 2002 osmotic minipump (Alza Corp., Palo Alto, Calif.) containing either vehicle (9% ethanol/87% propylene glycol/4% dH2O) or 1.0 mg/mL d-aldosterone (Sigma Chemical, St. Louis, Mo.) was inserted subcutaneously at the nape of the neck. Aldosterone was administered at a dose of 0.75 µg/hour. […] Animals were sacrificed from each group (n=8-13) after 7, 14, or 30 days of treatment. Myocardial hydroxyproline concentration was measured by a colorimetric assay that quantifies the reaction between oxidized hydroxyproline, and p-dimethylaminobenzaldehyde as described previously (4). […] Samples were incubated at 60° C. for 30 min, cooled to room temperature, and absorbance was monitored at 558 nm. Hydroxyproline content was quantitated from a freshly prepared standard curve of trans-4-hydroxy-L-proline (Sigma, St. Louis, Mo.). […]

SMILES | Systolic blood pressure [1] | Systolic blood pressure ([1]; listed as Eplerenone) | Cyclooxygenase-2 expression in the heart (immunostaining) [2] | Cyclooxygenase-2 expression in the heart (immunostaining) ([2]; listed as Eplerenone) | Myocardial tissue damage (histopathology) [3] | Hydroxyproline [4]
COC(=O)[C@@H]1CC2=CC(=O)CC[C@]2(C)[C@@]23O[C@@H]2C[C@@]2(C)[C@@H](CC[C@@]24CCC(=O)O4)[C@H]13 [eplerenone] | depression of this elevation | significantly reduced, but did not normalize blood pressure | prevention by eplerenone of induction of COX-2 expression | markedly reduced and in most cases completely prevented the expression of cycloxygenase-2 | markedly attenuated myocardial injury at all time points | 4.08 µg/mg and 2.41 µg/mg
C[C@]12CCC(=O)C=C1CC[C@@H]1[C@@H]2[C@@H](O)C[C@]2(C=O)[C@@H](C(=O)CO)CC[C@@H]12 [aldosterone] | increased; also recorded: systolic blood pressure elevation |  | restored the presence of cycloxygenase-2 in coronary arteries |  | No vascular or myocardial lesions; also recorded: focal arterial and myocardial alterations were observed starting at 14 days | 

Reference: patent US20040037806A1, “Aldosterone blocker therapy to prevent or treat inflammation-related disorders” (Pharmacia Corporation, priority 2002, published 2004)
